The values that follow are results of earlier work, collected in patent publication US10265268B2, “External composition for screen foamers” (POLA PHARMA INC., priority 2014, dated 2019).

For the data set the following is noted: surfactants from NIKKOL / suitable examples.

Turning to `CCCCCCCCCCCCCCCCCC(=O)OCC(O)CO` (centres unmarked) [Glyceryl monostearate], the HLB is given as 4.0. “Polyethylene glycol monostearate (40 E.O.)”: the HLB is reported as 17.5. In the case of Polyoxyethylene (10) cetyl ether, the HLB is listed as 13.5. Turning to Polyoxyethylene (20) behenyl ether, the HLB is given as 16.5. In the case of “Polyoxyethylene (20) polyoxypropylene (8) cetyl ether”, the HLB is on record as 12.5.
